Test results as given in ChEMBL document CHEMBL1255329, “Effect of polysorbate 80 on oritavancin binding to plastic surfaces: implications for susceptibility testing” (2008).
Converted amounts (≈) assume the structure as drawn.

Columns and labels:
Format in all cases: functional
[1] = test system: Streptococcus viridans; experiment: Antibacterial activity against Streptococcus viridans group clinical isolate by broth microdilution method
[2] = test system: Streptococcus pneumoniae; experiment: Antibacterial activity against Streptococcus pneumoniae ATCC 49619 in CAMHB medium containing 2% LHB by broth microdilution method in presence of 0.002% polysorbate 80
[3] = test system: Enterococcus faecalis; experiment: Antibacterial activity against Enterococcus faecalis ATCC 29212 in CAMHB medium containing 2% LHB by broth microdilution method in presence of 0.002% polysorbate 80
[4] = test system: Staphylococcus; experiment: Antibacterial activity against coagulase-negative Staphylococcus clinical isolate by broth microdilution method
[5] = test system: Enterococcus faecalis; experiment: Antibacterial activity against Enterococcus faecalis clinical isolate by broth microdilution method
[6] = test system: Streptococcus pyogenes; experiment: Antibacterial activity against Streptococcus pyogenes clinical isolate by broth microdilution method in presence of 0.002% polysorbate 80
[7] = test system: Streptococcus agalactiae; experiment: Antibacterial activity against Streptococcus agalactiae clinical isolate using 2% LHB by broth microdilution method
[8] = test system: Staphylococcus aureus; experiment: Antibacterial activity against Staphylococcus aureus clinical isolate by broth microdilution method
[9] = test system: Streptococcus pneumoniae; experiment: Antibacterial activity against Streptococcus pneumoniae clinical isolate by broth microdilution method
[10] = test system: Staphylococcus aureus; experiment: Antibacterial activity against Staphylococcus aureus clinical isolate by broth microdilution method in presence of 0.002% polysorbate 80
[11] = test system: Enterococcus faecalis; experiment: Antibacterial activity against Enterococcus faecalis ATCC 29212 in CAMHB medium containing 2% LHB by broth microdilution method in absence of 0.002% polysorbate 80
[12] = Antibacterial activity against Streptococcus Group G clinical isolate by broth microdilution method; details: Streptococcus sp. 'group G'
[13] = test system: Staphylococcus aureus; experiment: Antibacterial activity against Staphylococcus aureus ATCC 29213 in CAMHB medium containing 2% LHB by broth microdilution method in presence of 0.002% polysorbate 80
[14] = test system: Staphylococcus aureus; experiment: Antibacterial activity against Staphylococcus aureus ATCC 29213 in CAMHB medium containing 2% LHB by broth microdilution method in absence of 0.002% polysorbate 80
[15] = test system: Staphylococcus; experiment: Antibacterial activity against coagulase-negative Staphylococcus clinical isolate by broth microdilution method in presence of 0.002% polysorbate 80
[16] = test system: Streptococcus viridans; experiment: Antibacterial activity against Streptococcus viridans group clinical isolate by broth microdilution method in presence of 0.002% polysorbate 80
[17] = test system: Streptococcus pneumoniae; experiment: Antibacterial activity against Streptococcus pneumoniae ATCC 49619 in CAMHB medium containing 2% LHB by broth microdilution method in absence of 0.002% polysorbate 80
[18] = test system: Streptococcus pneumoniae; experiment: Antibacterial activity against Streptococcus pneumoniae ATCC 49619 in BHI broth by broth microdilution method in presence of 0.002% polysorbate 80
[19] = test system: Enterococcus faecalis; experiment: Ratio of MIC for Enterococcus faecalis clinical isolate to MIC for Enterococcus faecalis clinical isolate in presence of 0.002% polysorbate 80
[20] = test system: Staphylococcus; experiment: Ratio of MIC for coagulase-negative Staphylococcus clinical isolate to MIC for coagulase-negative Staphylococcus clinical isolate in presence of 0.002% polysorbate 80
[21] = test system: Streptococcus viridans; experiment: Ratio of MIC for Streptococcus viridans group clinical isolate to MIC for Streptococcus viridans group clinical isolate in presence of 0.002% polysorbate 80
[22] = Antibacterial activity against Streptococcus Group G clinical isolate by broth microdilution method in presence of 0.002% polysorbate 80; details: Streptococcus sp. 'group G'
[23] = Antibacterial activity against Streptococcus Group C clinical isolate by broth microdilution method; details: Streptococcus sp. 'group C'
[24] = test system: Streptococcus pneumoniae; experiment: Antibacterial activity against Streptococcus pneumoniae clinical isolate by broth microdilution method in presence of 0.002% polysorbate 80
[25] = test system: Staphylococcus aureus; experiment: Ratio of MIC for Staphylococcus aureus clinical isolate to MIC for Staphylococcus aureus clinical isolate in presence of 0.002% polysorbate 80
[26] = test system: Enterococcus faecium; experiment: Ratio of MIC for Enterococcus faecium clinical isolate to MIC for Enterococcus faecium clinical isolate in presence of 0.002% polysorbate 80
[27] = test system: Streptococcus pneumoniae; experiment: Antibacterial activity against Streptococcus pneumoniae ATCC 49619 in BHI broth by broth microdilution method in absence of 0.002% polysorbate 80
[28] = test system: Streptococcus pneumoniae; experiment: Antibacterial activity against Streptococcus pneumoniae ATCC 49619 in BHI broth containing 2% LHB by broth microdilution method in presence of 0.002% polysorbate 80
[29] = test system: Streptococcus agalactiae; experiment: Ratio of MIC for Streptococcus agalactiae clinical isolate to MIC for Streptococcus agalactiae clinical isolate in presence of 0.002% polysorbate 80
[30] = test system: Staphylococcus aureus; experiment: Antibacterial activity against Staphylococcus aureus ATCC 29213 in CAMHB medium by broth microdilution method in presence of 0.002% polysorbate 80
[31] = test system: Streptococcus pneumoniae; experiment: Ratio of MIC for Streptococcus pneumoniae clinical isolate to MIC for Streptococcus pneumoniae clinical isolate in presence of 0.002% polysorbate 80
[32] = test system: Streptococcus agalactiae; experiment: Antibacterial activity against Streptococcus agalactiae clinical isolate using 2% LHB by broth microdilution method in presence of 0.002% polysorbate 80
[33] = test system: Staphylococcus aureus; experiment: Antibacterial activity against Staphylococcus aureus ATCC 29213 in CAMHB medium by broth microdilution method in absence of 0.002% polysorbate 80
[34] = test system: Enterococcus faecium; experiment: Antibacterial activity against Enterococcus faecium clinical isolate by broth microdilution method in presence of 0.002% polysorbate 80
[35] = test system: Streptococcus pneumoniae; experiment: Antibacterial activity against Streptococcus pneumoniae ATCC 49619 in BHI broth containing 2% LHB by broth microdilution method in absence of 0.002% polysorbate 80
[36] = Antibacterial activity against Streptococcus Group C clinical isolate by broth microdilution method in presence of 0.002% polysorbate 80; details: Streptococcus sp. 'group C'
[37] = test system: Streptococcus pyogenes; experiment: Antibacterial activity against Streptococcus pyogenes clinical isolate by broth microdilution method
[38] = test system: Enterococcus faecalis; experiment: Antibacterial activity against Enterococcus faecalis clinical isolate by broth microdilution method in presence of 0.002% polysorbate 80
[39] = test system: Enterococcus faecalis; experiment: Antibacterial activity against Enterococcus faecalis ATCC 29212 in CAMHB medium by broth microdilution method in presence of 0.002% polysorbate 80
[40] = test system: Streptococcus pyogenes; experiment: Ratio of MIC for Streptococcus pyogenes clinical isolate to MIC for Streptococcus pyogenes clinical isolate in presence of 0.002% polysorbate 80
[41] = test system: Enterococcus faecalis; experiment: Antibacterial activity against Enterococcus faecalis ATCC 29212 in CAMHB medium by broth microdilution method in absence of 0.002% polysorbate 80
[42] = test system: Enterococcus faecium; experiment: Antibacterial activity against Enterococcus faecium clinical isolate by broth microdilution method

CC(=O)N[C@@H]1[C@H](Oc2c3cc4cc2Oc2ccc(cc2Cl)[C@@H](O[C@@H]2O[C@@H](CO)[C@@H](O)[C@H](O)[C@@H]2NC(C)=O)[C@@H]2NC(=O)[C@H](NC(=O)[C@@H]4NC(=O)[C@H]4NC(=O)[C@@H](Cc5ccc(c(Cl)c5)O3)NC(=O)[C@H](N)c3ccc(O)c(c3)Oc3cc(O)cc4c3)c3ccc(O)c(c3)-c3c(O[C@H]4O[C@H](CO)[C@@H](O)[C@@H](O)[C@@H]4O)cc(O)cc3[C@@H](C(=O)O)NC2=O)O[C@@H](CO)[C@@H](O)[C@@H]1O
MIC90 [1]: 0.12 µg/mL (≈ 0.0679 µM) | MIC [2]: 0.03 µg/mL | MIC [3]: 0.5 µg/mL | MIC90 [4]: 2 µg/mL (≈ 1.13 µM) | MIC90 [5]: 0.5 µg/mL (≈ 0.283 µM) | MIC90 [6]: 0.03 µg/mL | MIC90 [7]: 0.06 µg/mL (≈ 0.0339 µM) | MIC90 [8]: 0.5 µg/mL (≈ 0.283 µM) | MIC [9]: 0.06 µg/mL (≈ 0.0339 µM) | MIC90 [9]: 0.06 µg/mL (≈ 0.0339 µM) | MIC90 [10]: 0.5 µg/mL | MIC [11]: 1 µg/mL (≈ 0.566 µM) | MIC [12]: 0.03 µg/mL (≈ 0.017 µM) | MIC [13]: 0.5 µg/mL | MIC [14]: 1 µg/mL (≈ 0.566 µM) | MIC90 [15]: 2 µg/mL | MIC90 [16]: 0.12 µg/mL | MIC [17]: 0.03 µg/mL (≈ 0.017 µM) | MIC [18]: 0.03 µg/mL | Ratio [19]: 4 | Ratio [20]: 1 | Ratio [21]: 0.5 | MIC [22]: 0.03 µg/mL | MIC [23]: 0.03 µg/mL (≈ 0.017 µM) | MIC [24]: 0.06 µg/mL | MIC90 [24]: 0.06 µg/mL | Ratio [25]: 1 | Ratio [26]: 0.5 | MIC [27]: 0.03 µg/mL (≈ 0.017 µM) | MIC [28]: 0.03 µg/mL | Ratio [29]: 1 | MIC [30]: 0.5 µg/mL | Ratio [31]: 1 | MIC90 [32]: 0.06 µg/mL | MIC [33]: 0.5 µg/mL (≈ 0.283 µM) | MIC90 [34]: 128 µg/mL | MIC [35]: 0.03 µg/mL (≈ 0.017 µM) | MIC [36]: 0.03 µg/mL | MIC90 [37]: 0.06 µg/mL (≈ 0.0339 µM) | MIC90 [38]: 0.12 µg/mL | MIC [39]: 0.5 µg/mL | Ratio [40]: 2 | MIC [41]: 0.5 µg/mL (≈ 0.283 µM) | MIC90 [42]: 64 µg/mL (≈ 36.2 µM)

O=C(O)c1cn(C2CC2)c2cc(N3CCNCC3)c(F)cc2c1=O [CIPROFLOXACIN]
MIC [2]: 1 µg/mL | MIC [3]: 0.5 µg/mL | MIC [11]: 0.5 µg/mL (≈ 1.51 µM) | MIC [13]: 0.5 µg/mL | MIC [14]: 0.5 µg/mL (≈ 1.51 µM) | MIC [28]: 1 µg/mL | MIC [30]: 0.5 µg/mL | MIC [33]: 0.5 µg/mL (≈ 1.51 µM) | MIC [39]: 0.5 µg/mL | MIC [41]: 0.5 µg/mL (≈ 1.51 µM)
